From patent EP1105728B1, “MODULATING MULTIPLE LINEAGE KINASE PROTEINS” (CEPHALON, INC., priority 1998, dated 2000) come the findings set out here.

In one assay the target is T1, MLK-3 (Homo sapiens, UniProt Q16584).
T1 construct: A full length cDNA of human MLK-3, MLK-2, or mouse DLK; expressed in transfected cells; host or cells: Cos7
Put plainly: JNK activity (immunoprecipitation/kinase assay) in Cos7 cells overexpressing MLK-3 and HA-JNK1. It is filed as cell-based. On the procedure: Cos7 cells were plated at 80% confluency and transfected with 2 ug each of cDNA constructs using lipofectamine as recommended by the provider (Gibco BRL, Gaithersburg, MD). A full length cDNA of human MLK-3, MLK-2, or mouse DLK or a partial human MLK-1 as described above, and a full length Hemagluttinin A-tagged human JNK1, kindly provided by J. Silvio Gutkind (NIH, Bethesda, MD), were subcloned into the pcDNA3 vector (Invitrogen, San Diego, CA). […] JNK activity from the lysate was assayed by an immunoprecipitation/kinase assay as described below.
Lysate from Cos 7 cells was measured for protein concentration using the Micro BCA kit from Pierce (Rockford, IL) and equal amounts of protein were immunoprecipitated with the HA antibody for 1 hr at 4°C. Immunoprecipitates were pelleted by centrifugation in a microfuge centrifuge for 20 sec, resuspended in Triton buffer, washed by centrifugation 2 more times, followed by a final wash in Kinase buffer (20 mM Hepes pH 7.4,20 mM MgCl2, 2 mM dithiothreitol, 0.1 mM sodium vanadate). The immunoprecipitate was resuspended in kinase buffer containing 1 µM ATP and 5 µCi [γ-^32P]ATP and substrate (1 µg/sample of AP-1 ) and incubated for 15 min at 30°C. […] Samples were heated to 80°C for 5 min and loaded onto 10% SDS-polyacrylamide gels. Proteins were separated by electrophoresis. The gel was dried and quantitation of radioactivity in the AP-1 substrate was performed on a Molecular Dynamics Phosphorimager (Sunnyvale, Ca.).
To determine whether inhibition of the JNK pathway regulated by these kinases correlated with neurotrophic compounds, we evaluated the effect of compounds on JNK activity in Cos7 cells overexpressing HA-JNK and MLK3. After a 48 hr transfection period, the cells were incubated with compounds at 500 nM for 2hr followed by cellular lysis. Lysate was immunoprecipitated and kinase activity measured as previously described. […]

For the next assay, the system named is TNF-α. As to the kind of experiment: Induction of TNF-α by LPS in THP-1 cells (ELISA). It is filed as cell-based. Particulars: for IC50: Homo sapiens, THP-1, LPS 2 µg/ml, serum-free medium, read-out: THP-1 Cells TNF-α IC50; for TNF-α in the medium: inhibitor 30 min prior to LPS, medium collected 3 hr after LPS. On the procedure:
THP-1 cells were grown in RPMI 1640 medium supplemented with 10% fetal bovine serum. LPS (E.coli serotype 0111.B4, TCA extracted) was purchased from Sigma and dissolved in PBS. ELISA kits for assaying IL-1 and TNF-α were purchased from Boerhinger-Mannheim and assays on THP-1 culture medium were performed as directed by the manufacturer. Standard curves according to directions were obtained with each assay.
Experiments were performed in 12 well culture plates with either 1 or 2 ml of THP-1 cells at 4 X 10^5 cells/ml. IL-1 and TNF-α were induced by the addition of LPS to the culture medium and the medium collected at various times thereafter for cytokine assay. Cells were removed by centrifugation and the supernatants frozen at -70°C until assay. To minimize costs experiments were performed in duplicate cultures and the duplicate supernatants were pooled after centrifugation. Each pooled supernatant was assayed in duplicate. Stock solutions of indolo- and fused pyrrolocarbazoles in 100% DMSO were diluted to the desired concentrations in either medium containing 10% fetal bovine serum or in medium containing 0.5 mg/ml BSA. Unless otherwise stated, compounds were added to the THP-1 cells 1 hr prior to the addition of LPS.

A further assay has as its system JNK. As to the kind of experiment: JNK activity immunoprecipitated from THP-1 cells. In kind it is cell-based. The conditions noted are these: Homo sapiens, read-out: THP-1 Cells JNK % inh. 500 nM. Here is the method: Assays for JNK activity were performed after immunoprecipitating the JNK protein from an extract of lysed THP-1 cells. Pelleted THP-1 cells were lysed on ice for 15 min in 500 µl of Frac buffer (10 mM Tris-Hcl, pH 7.5,50 mM NaCl, 30 µM sodium pyrophosphate, 1 mg/ml BSA, 1% Triton-X-100). The extract was centrifuged for 10 min at 14K and 5 µl of JNK antibody (Santa Cruz) was added to the supernatant. The extract was rotated for 60 min at 4°C, 75 µl of washed protein A Sepharose (20% w/v in Frac) added and the extract rotated another 30 min to bind the antibody complex to the protein A Sepharose. The protein A Sepharose was washed twice with Frac buffer, once with 20 mM Hepes, pH 7.6, 20 mM MgCl2, 2 mM DTT, then incubated for 15 min at 30° C in 30 µl of kinase buffer (20 mM hepes, 20 mM MgCl2, 2 MM DTT, 1 µg recombinant c-jun, and 2 µM ATP-γ-^32P, 2 µCi. The reaction was terminated by the addition of 10 µl of 4X SDS gel loading buffer, heated for 3 min at 80° C, and the proteins were analyzed on a 10% SDS gel. The gel was dried, exposed to a Phosphorimager plate, and the radioactive bands were analyzed on a Phosphorimager.

In another assay the test system is MKK4. As to the kind of experiment: MPTP model: phosphorylated MKK4 in the substantia nigra (immunoblot, ELISA). In kind it is in vivo, mice. Particulars: pretreatment; Compound III-3 1 mg/kg (Fig. 22c). On the procedure: MPTP was administered at a dose (40 mg/kg) that produces loss of striatal dopaminergic terminals and cell bodies in the substantia nigra. Tyrosine hydroxylase was used as a marker for dopamenergic nerve terminals in the substantia nigra. […] Since Compound III-3 is a known inhibitor of MLK3, activation of a downstream substrate of MLK3 was measured in MPTP- treated mice. Levels of phosphorylated MKK4 were measured using a phospho-MKK4 specific antibody (New England Biolabs, Beverly, MA) that recognizes the monophosphorylated form of MKK4 by either immunoblot (Fig. 22b) or ELISA (Fig. 22c). MPTP administration elevated levels of phosphorylated MKK4 in the substantia nigra by up to 5 fold over control levels (Fig. 22b). Peak elevations occurred 4 hrs after administration ofMPTP and coincided with peak CNS levels of MPP^+.

Where [1] appears, read: COS-7, 500 nM for 2hr, control is JNK activity in the presence of DMSO, read-out: % Inhibition of JNK Activity (average) MLK3 in Cos7 cells.
The mark [2] stands for this setting: COS-7, read-out: Overexpressed MLK3 in Cos 7 Cells JNK % inh. 500 nM.

Where two headings read alike, the source gives them in different places. Starred links: 1 amine or outer side, 2 acyl side, 3 side chain; linkers in the order of their positions; H or OH if unused. Positions of bridges follow the written chain, without caps; N, C: chain ends. Non-standard residues stand in square brackets, D forms with d. Residues, ends and D or L forms follow the SMILES beside them. Chains are numbered I, II in the order given. Actinocin(9to1) = Cc1c2oc3c(C)ccc(C(=O)[*:1])c3nc-2c(C(=O)[*:2])c(N)c1=O; NMeV = CN[C@H](C(=O)O)C(C)C; Sar = CNCC(=O)O

T1 sequence (Q16584 whole entry): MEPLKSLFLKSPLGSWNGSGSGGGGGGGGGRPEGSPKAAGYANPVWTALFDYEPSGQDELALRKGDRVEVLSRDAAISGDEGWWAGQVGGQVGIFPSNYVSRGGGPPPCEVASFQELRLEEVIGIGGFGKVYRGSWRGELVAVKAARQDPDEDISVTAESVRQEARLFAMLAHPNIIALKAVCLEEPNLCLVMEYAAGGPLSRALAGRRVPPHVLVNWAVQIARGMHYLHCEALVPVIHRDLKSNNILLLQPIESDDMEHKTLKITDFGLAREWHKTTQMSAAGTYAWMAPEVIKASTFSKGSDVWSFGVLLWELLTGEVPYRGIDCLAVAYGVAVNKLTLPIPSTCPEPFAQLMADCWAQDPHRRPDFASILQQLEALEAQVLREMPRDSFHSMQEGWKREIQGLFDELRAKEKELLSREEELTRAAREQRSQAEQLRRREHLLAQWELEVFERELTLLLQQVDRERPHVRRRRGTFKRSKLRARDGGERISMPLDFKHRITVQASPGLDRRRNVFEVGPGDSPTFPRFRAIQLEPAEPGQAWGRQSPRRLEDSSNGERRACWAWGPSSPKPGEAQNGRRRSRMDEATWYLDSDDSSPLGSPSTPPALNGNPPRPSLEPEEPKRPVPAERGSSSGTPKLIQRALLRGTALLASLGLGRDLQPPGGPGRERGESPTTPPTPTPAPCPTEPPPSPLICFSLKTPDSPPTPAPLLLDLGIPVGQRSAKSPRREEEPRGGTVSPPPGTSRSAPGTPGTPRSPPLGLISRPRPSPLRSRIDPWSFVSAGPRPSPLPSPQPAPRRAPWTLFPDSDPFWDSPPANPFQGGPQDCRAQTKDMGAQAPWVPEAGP

Take `COC(=O)C1(O)CC2OC1(C)n1c3ccc(CCSC)cc3c3c4c(c5c6cc(CCSC)ccc6n2c5c31)C(=O)NC4` (stereo not drawn) [III-10]: the inhibition at 0.5 µM on MLK-3 (setting [1]) amounted to 78%; on MLK-3 (setting [2]), 78%; in the assay on JNK, 48%. Further, in the assay on TNF-α, the half-inhibitory concentration (IC50) (usually the concentration needed to halve the response being measured) is 4300 nM.
Take `CCNC(=O)Nc1ccc2c(c1)c1c3c(c4c5cc(CCc6ccccn6)ccc5n5c4c1n2C1CC(O)(C(=O)OC)C5(C)O1)CNC3=O` (stereo not drawn) [III-1]: the values for the inhibition at 0.5 µM on MLK-3 (setting [1]), on MLK-3 (setting [2]) and with JNK were 84%, 83.8% and 93.5%, respectively. Besides, the IC50 in the assay with TNF-α was found to be 49.5 nM.
Take `Cc1c2oc3c(C)ccc(C(=O)N[C@@H]4C(=O)N[C@H](C(C)C)C(=O)N5CCC[C@H]5C(=O)N(C)CC(=O)N(C)[C@@H](C(C)C)C(=O)O[C@@H]4C)c3nc-2c(C(=O)N[C@@H]2C(=O)N[C@H](C(C)C)C(=O)N3CCC[C@H]3C(=O)N(C)CC(=O)N(C)[C@@H](C(C)C)C(=O)O[C@@H]2C)c(N)c1=O` [Actinomycin D, reference compound] (I: T[dV]P[Sar][NMeV] / II: T[dV]P[Sar][NMeV]; ester I:1-I:C, II:1-II:C; linker I:N-II:N via Actinocin(9to1)): the “TNF-α in the medium” value in the assay on TNF-α is reported as “no TNF-α was found”.
Consider `COC(=O)C1(O)CC2OC1(C)n1c3ccccc3c3c4c(c5c6ccccc6n2c5c31)C(=O)NC4` (stereo not drawn) [III-9], for which the inhibition at 0.5 µM at MLK-3 (setting [1]) is 98.5%.
With `CCOCOCc1ccc2c(c1)c1c3c(c4c5cc(COCOCC)ccc5n5c4c1n2C1CC(O)(C(=O)OC)C5(C)O1)CNC3=O` (stereo not drawn) [III-2], the inhibition at 0.5 µM on MLK-3 (setting [1]) stood at 96%.
For `C[C@@H]1C[C@@H]([C@H](O)CC2CC(=O)NC(=O)C2)C(=O)[C@@H](C)C1` [cycloheximide, reference compound], the “TNF-α in the medium” value in the assay on TNF-α is “no TNF-α was found”.
On to `COC(=O)C1(OC)CC2OC1(C)n1c3ccccc3c3c4c(c5c6ccccc6n2c5c31)C(=O)NC4` (stereo not drawn) [III-11], for which the inhibition at 0.5 µM was 92.5% at MLK-3 (COS-7, 500 nM, read-out: Overexpressed MLK3 in Cos 7 Cells JNK % inh. 500 nM); 92.5% on MLK-3 (setting [1]); 51% in the assay with JNK. In the assay with TNF-α, the IC50 came out at 686 nM.
For the compound `C#CCN(C)[C@H](C)Cc1ccccc1` [Compound 1-deprenyl, 1-deprenyl, reference compound], the “MPTP-mediated MKK4 phosphorylation” value in the assay on MKK4 was “attenuated”.
With `CCCCCOC(=O)C1(O)CC2OC1(C)n1c3ccccc3c3c4c(c5c6ccccc6n2c5c31)C(=O)NC4` (stereo not drawn) [III-4], the inhibition at 0.5 µM at MLK-3 (setting [1]) was 66%; on MLK-3 (setting [2]) it was 66%; in the assay on JNK, 81%. Besides, the half-inhibitory concentration (IC50) with TNF-α came out at 462 nM.
